Results: patent US20050101595A1, “N-containing cycloalkyl-substituted amino-thiazole derivatives and pharmaceutical compositions for inhibiting cell proliferation and methods for their use” (PFIZER INC., priority 2003, published 2005)
Where a name gives a salt, the structure may show the parent alone. Read-outs that look alike come from different tables or passages of the source.

Legend:
CDK2/Cyclin A = CDK2/Cyclin A (Homo sapiens, UniProt P24941); experiment: Inhibition of CDK2/Cyclin A Retinoblastoma Kinase Activity; assay type: biochemical; settings: for Ki: apparent Ki, CDK2/proteolyzed cyclin A, Rb fragment substrate, 25 μM ATP
How it was run: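 CDK2 (10 or 19 nM), insect-cell expressed, gel-filtration purified with truncated cyclin A; Rb fragment substrate; 25 μM ATP; 10 mM HEPES pH 7.4, 10 mM MgCl2; 30° C, 60 or 75 min; EDTA stop; phosphocellulose/nitrocellulose capture, phosphorimager. % inhibition vs DMSO control, no-enzyme background subtracted.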

[1] = target: human CDK4 and genetically truncated (1-264) cyclin D3 (Homo sapiens, UniProt P11802); experiment: Inhibition of CDK4/Cyclin D Retinoblastoma Kinase Activity; assay type: biochemical; settings: for Ki: apparent Ki, CDK4/truncated cyclin D3, Rb fragment substrate, 25 μM ATP
How it was run: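 The enzyme complex (5 nM), expressed in co-infected insect cells, was incubated with recombinant Rb fragment, 25 μM radiolabelled ATP and 2% DMSO at 30 °C. Reactions were stopped with EDTA after 20 minutes, or 60 minutes for tight-binding inhibitors. Apparent Ki values came from competitive inhibition fits.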

HCT-116 cell line = experiment: Inhibition of cell growth, tetrazolium salt (MTT) assay; assay type: cell-based; settings: for IC50: Homo sapiens, HCT-116, 120 h, MTT, three to five days, read-out: HCT-116 IC50; for HCT-116 % Inhibition at 0.25 μM: 0.25 μM compound
How it was run: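 Growth inhibition is scored relative to cells receiving only 0.5% (v/v) DMSO. Plated cells rest 4 h, then take compound for three to five days at 37° C; MTT reduction to formazan is read at 540 nm.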

Sequence of human CDK4 and genetically truncated (1-264) cyclin D3 (P11802 whole entry, the tested form may be a part): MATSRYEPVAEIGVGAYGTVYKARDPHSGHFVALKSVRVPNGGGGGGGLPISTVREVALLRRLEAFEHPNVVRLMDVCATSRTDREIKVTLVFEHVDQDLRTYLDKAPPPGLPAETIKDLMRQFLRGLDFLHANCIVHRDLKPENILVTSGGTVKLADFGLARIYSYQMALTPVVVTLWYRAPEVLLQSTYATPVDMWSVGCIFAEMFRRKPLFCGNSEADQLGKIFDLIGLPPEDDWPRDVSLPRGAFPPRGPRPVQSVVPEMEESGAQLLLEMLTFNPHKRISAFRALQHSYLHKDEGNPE
Sequence of human CDK4 and genetically truncated (1-264) cyclin D3 (P30281 1-264 partner): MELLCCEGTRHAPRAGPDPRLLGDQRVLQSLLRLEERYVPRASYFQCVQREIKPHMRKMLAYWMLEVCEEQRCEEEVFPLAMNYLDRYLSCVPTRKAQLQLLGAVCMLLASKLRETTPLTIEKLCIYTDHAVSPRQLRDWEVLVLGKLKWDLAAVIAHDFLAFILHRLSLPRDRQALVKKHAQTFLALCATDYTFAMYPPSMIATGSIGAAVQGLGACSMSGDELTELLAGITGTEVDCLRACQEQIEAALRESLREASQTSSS

Row | Structure (SMILES) | Ki (CDK2/Cyclin A) [nM] | Ki [1] [nM] | IC50 (HCT-116 cell line; first HCT-116 column (c4)) [nM] | IC50 (HCT-116 cell line; second HCT-116 column (c5)) [nM] | further results
1 | CN(C)CCCc1ccc(S(=O)(=O)N2CCC(Nc3nc(N)c(C(=O)c4c(F)cccc4F)s3)CC2)cc1 (as salt: salt) [Example I10, 1-(4-Amino-2-{1-[4-(3-dimethylamino-propyl)-benzenesulfonyl]-piperidin-4-ylamino}-thiazol-5-yl)-1-(2,6-difluoro-phenyl)-methanone D-Glucuronic Acid Salt] |  |  |  |  | melting point: 117 to 120 °C
2 | Nc1nc(NC2CCN(S(=O)(=O)c3ccc(N4CCC[C@H](CO)C4)nc3)CC2)sc1C(=O)c1c(F)cccc1F [Example G18] | 0.39 | 0.58 | 120 | 600 | melting point: > 149 °C (dec.)
3 | Cc1ncc(-c2ccc(S(=O)(=O)N3CCC(Nc4nc(N)c(C(=O)c5c(F)cccc5F)s4)CC3)cc2)[nH]1 [Example F33, 1-(4-Amino-2-{1-[4-(2-methyl-1H-imidazol-4-yl)-benzenesulfonyl]-piperidin-4-ylamino}-thiazol-5-yl)-1-(2,6-difluoro-phenyl)-methanone Dihydrochloride] | 0.28 | 0.28 | 160 | 1600 | 
4 | Nc1nc(NC2CCN(C(=O)/C=C/c3ccncc3)CC2)sc1C(=O)c1c(F)cccc1F [Example D6, 1-{[4-Amino-5-(2,6-difluoro-benzoyl)-thiazol-2-ylamino]-piperidin-1-yl)3-pyridin-4-yl-prop-2(E)-enone] | 160 | 67 | 1900 | 3900 | 
5 | Cn1cnc(-c2ccc(S(=O)(=O)N3CCC(Nc4nc(N)c(C(=O)c5c(F)cccc5F)s4)CC3)cc2)c1 [Example F31, 1-(4-Amino-2-{1-[4-(1-methyl-1H-imidazol-4-yl)-benzenesulfonyl]-piperidin-4-ylamino}-thiazol-5-yl)-1-(2,6-difluoro-phenyl)-methanone Trifluoroacetic Acid Salt] | < 1 | 0.55 | 80 | 300 | 
6 | Nc1nc(NC2CCN(C(=O)Cc3cccs3)CC2)sc1C(=O)c1c(F)cccc1F [Example Q65] |  |  |  |  | CDK2 % Inhibition at 0.03 μM (CDK2/Cyclin A; 0.03 μM compound, Table 4): 39%; CDK4 % Inhibition at 0.03 μM ([1]; 0.03 μM compound, Table 4): 31%; HCT-116 % Inhibition at 0.1 μM (HCT-116 cell line; 0.1 μM compound, HCT-116, Table 4): 3%; HCT-116 % Inhibition at 0.25 μM (HCT-116 cell line; HCT-116, Table 4): 27%
7 | CNCCS(=O)(=O)N1CCC(Nc2nc(N)c(C(=O)c3c(F)cccc3F)s2)CC1 [Example K33, {4-Amino-2-[1-(2-methylamino-ethanesulfonyl)-piperidin-4-ylamino]-thiazol-5-yl}-(2,6-difluoro-phenyl)-methanone Trifluoroacetic Acid Salt.] | 5.6 | 0.64 | 650 | 5000 | 
8 | Nc1nc(NC2CCN(C(=O)c3ccc(N=Nc4ccccc4)cc3)CC2)sc1C(=O)c1c(F)cccc1F [Example R13] |  |  |  |  | CDK2 % Inhibition at 0.03 μM (CDK2/Cyclin A; at 0.03 μM): 32%; CDK4 % Inhibition at 0.03 μM ([1]; at 0.03 μM): 69%; HCT-116 % Inhibition at 0.1 μM (HCT-116 cell line; HCT-116 cells, at 0.1 μM): 0%; HCT-116 5 Inhibition at 0.25 μM (HCT-116 cell line; HCT-116 cells): 42
9 | Nc1nc(NC2CCN(C(=O)Nc3ccc(-c4ccccc4)cc3)CC2)sc1C(=O)c1c(F)cccc1F [Example O63] |  |  |  |  | CDK2 % Inhibition At 0.03 μM (CDK2/Cyclin A; 0.03 μM compound, Table 2): 28%; CDK4 % Inhibition at 0.03 μM ([1]; 0.03 μM compound, Table 2): 4%; HCT-116 % Inhibition at 0.25 μM (HCT-116 cell line; HCT-116, Table 2): 40%
10 | Nc1nc(NC2CCN(S(=O)(=O)c3ccc(CBr)cc3)CC2)sc1C(=O)c1c(F)cccc1F [Example P68] |  |  |  |  | CDK2 % Inhibition at 0.03 μM (CDK2/Cyclin A; 0.03 μM compound, Table 3): 72%; CDK4 % Inhibition at 0.03 μM ([1]; 0.03 μM compound, Table 3): 70%; HCT-116 % Inhibition at 0.1 μM (HCT-116 cell line; 0.1 μM compound, HCT-116, Table 3): 8%; HCT-116 % Inhibition at 0.25 μM (HCT-116 cell line; HCT-116, Table 3): 25%
11 | CN1CCN=C1c1ccc(S(=O)(=O)N2CCC(Nc3nc(N)c(C(=O)c4c(F)cccc4F)s3)CC2)cc1 [Example J1, 1-[4-Amino-2-{1-[4-(1-methyl-4,5-dihydro-1H-imidazol-2-yl)-benzenesulfonyl]-piperidin-4-ylamino}-thiazol-5-yl)-1-(2,6-difluoro-phenyl)-methanone] | < 1 | 0.63 | 1200 | 5000 | 
12 | CN(C)c1cccc(C(=O)N2CCC(Nc3nc(N)c(C(=O)c4c(F)cccc4F)s3)CC2)c1 [Example R135] |  |  |  |  | CDK2 % Inhibition at 0.03 μM (CDK2/Cyclin A; at 0.03 μM): 27%; CDK4 % Inhibition at 0.03 μM ([1]; at 0.03 μM): 50%; HCT-116 % Inhibition at 0.1 μM (HCT-116 cell line; HCT-116 cells, at 0.1 μM): 0%; HCT-116 5 Inhibition at 0.25 μM (HCT-116 cell line; HCT-116 cells): 38
